The record followed here is patent publication US6794402B2, “Bicyclic cyclohexylamines and their use as NMDA receptor antagonists” (Warner-Lambert Company, priority 2000, dated 2004).

Counter-ions that a name gives are not always drawn.

The target in one data set is T1, [3H]ifenprodil binding site, rat forebrain membranes (Rattus norvegicus, UniProt P35439+Q00960).
T1 construct: membrane fraction was prepared from frozen adult rat forebrains; tissue Zivic-Miller Laboratories, Inc; host or cells: adult rat forebrain, washed buffy coat membrane fraction
T1 sequence (Q00960 27-1482, other chains not shown): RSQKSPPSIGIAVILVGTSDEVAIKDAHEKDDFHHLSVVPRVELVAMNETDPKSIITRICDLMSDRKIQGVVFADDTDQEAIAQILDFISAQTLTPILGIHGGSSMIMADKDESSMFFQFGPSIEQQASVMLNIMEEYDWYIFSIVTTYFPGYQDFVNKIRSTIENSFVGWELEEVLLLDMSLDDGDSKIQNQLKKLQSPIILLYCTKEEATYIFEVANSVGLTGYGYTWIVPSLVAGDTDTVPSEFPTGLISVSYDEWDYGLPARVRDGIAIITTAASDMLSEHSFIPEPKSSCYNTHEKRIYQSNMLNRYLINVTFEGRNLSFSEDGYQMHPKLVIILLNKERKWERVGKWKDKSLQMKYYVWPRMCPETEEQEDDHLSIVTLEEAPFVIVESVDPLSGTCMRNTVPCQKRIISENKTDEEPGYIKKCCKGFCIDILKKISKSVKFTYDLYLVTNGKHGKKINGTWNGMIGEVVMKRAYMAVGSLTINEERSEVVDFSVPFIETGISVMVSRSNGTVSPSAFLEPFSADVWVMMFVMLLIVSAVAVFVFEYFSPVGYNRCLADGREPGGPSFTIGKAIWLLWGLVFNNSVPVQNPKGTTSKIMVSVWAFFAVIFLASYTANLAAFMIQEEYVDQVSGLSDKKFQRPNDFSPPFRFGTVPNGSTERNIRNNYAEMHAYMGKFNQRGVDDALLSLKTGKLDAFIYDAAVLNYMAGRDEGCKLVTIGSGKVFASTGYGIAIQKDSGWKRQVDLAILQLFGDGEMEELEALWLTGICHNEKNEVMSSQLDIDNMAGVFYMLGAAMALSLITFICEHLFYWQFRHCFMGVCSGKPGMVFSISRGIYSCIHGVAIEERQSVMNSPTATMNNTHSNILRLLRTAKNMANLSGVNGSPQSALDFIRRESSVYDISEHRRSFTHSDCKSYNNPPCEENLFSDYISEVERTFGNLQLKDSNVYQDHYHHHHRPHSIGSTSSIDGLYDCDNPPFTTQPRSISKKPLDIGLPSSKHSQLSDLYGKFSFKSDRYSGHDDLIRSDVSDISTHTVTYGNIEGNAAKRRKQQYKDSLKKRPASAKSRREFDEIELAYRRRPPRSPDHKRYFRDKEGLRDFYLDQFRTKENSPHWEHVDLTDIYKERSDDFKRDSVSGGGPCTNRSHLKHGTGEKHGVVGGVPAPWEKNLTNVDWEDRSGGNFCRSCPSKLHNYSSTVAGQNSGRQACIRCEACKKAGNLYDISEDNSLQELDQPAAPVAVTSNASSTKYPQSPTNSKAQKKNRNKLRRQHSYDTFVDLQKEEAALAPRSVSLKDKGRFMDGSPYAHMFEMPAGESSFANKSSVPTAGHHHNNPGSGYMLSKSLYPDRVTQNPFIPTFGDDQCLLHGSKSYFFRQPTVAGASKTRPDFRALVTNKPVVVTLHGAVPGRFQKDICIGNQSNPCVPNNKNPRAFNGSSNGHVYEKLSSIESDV
Kind of data set: [3H]Ifenprodil binding assay. The following applies: 4 nM [3H]-ifenprodil, 2 hours at room temperature. The procedure:
All buffers and reagents used in assay incubations or to dissolve drugs were prepared using water purified through a Milli-Q reverse osmosis system (Millipore Corp, Bedford, Mass.) and treated with UV emissions. Prior to use in the assays, buffers were further filtered through a sterile Corning filtration unit (Corning Glass Works, Corning, N.Y.) containing a 0.2-micron filter. Buffer used to rinse the membranes on the assay filters was prepared with purified water, but was not refiltered and was stored no longer than 5 days. Stock solutions of the drugs (usually 10 mM) were dissolved in 20 mM HEPES-KOH buffer pH 7.4 (assay buffer) with the addition of 1 to 5 μL of glacial AcOH, if needed to keep them in solution. For eliprodil the stock solution was buffered with the addition of 10% DMSO. All subsequent dilutions from stock were made in buffer.
An extensively washed buffy coat membrane fraction was prepared from frozen adult rat forebrains (Zivic-Miller Laboratories, Inc., Zelienople, Pa.) as described previously (Coughenour L. L., Cordon, J. J., J. Pharmacol. Exp. Ther., 1997;280:584-592) and stored at −80° C. On the day of the assay, pellets were resuspended in 35 mL of assay buffer at pH 7.4 using a Polytron setting 6. After incubation at 37° C. for 30 minutes in a shaking water bath, the homogenate was centrifuged 40,000×g for 10 minutes at 4° C. The pellets were resuspended in fresh buffer and centrifuged 3 more times before final suspension for use in the assay.
[^3H]Ifenprodil Binding. Triplicate incubations were carried out in a volume of 0.5 mL in 1.3 mL polypropylene tubes (Marsh Biomedical Products Inc., Rochester, N.Y.) for 2 hours at room temperature. Incubations contained test agents, membranes (100-200 μg protein) and 4 nM[^3H]-ifenprodil in 20 mM HEPES-KOH buffer, pH 7.4 (assay buffer). Assays were started by addition of the membranes. Bound radioligand was separated by filtration under reduced pressure using a Tomtec Mach II, 96-well cell harvester (Tomtec Inc., Orange, Colo.). Filtration was through Whatman GF/B glass fiber filters (Whatman Ltd, Maidstone, England), which had been soaked for at least 15 minutes in 0.3% polyethylenimine and allowed to air dry. The filters were rinsed with 3 mL of ice cold assay buffer within 6 seconds. Air was allowed to pass through the filters for an additional 10 seconds to remove residual moisture. The filter mat was supported on a cold (−20° C.) teflon support, and filters from individual wells were separated and placed in Mini Poly-Q vials (Beckman Instruments Inc., Fullerton, Calif.) and filled with 4 mL of scintillation cocktail (Beckman Ready Protein^+). Radioactivity retained on the filter was determined by liquid scintillation spectrophotometry. Nonspecific binding was defined as the binding in the presence of 1 mM ifenprodil. Specific binding was 90%.
Data analysis. Binding curves were statistically analyzed for a best one or two site competition fit using GraphPad Prism software (GraphPad Software Inc., San Diego, Calif.). The normalized data was fit by nonweighted nonlinear regression to either [formula]
Control data was entered as 100%, and no parameters were constrained. Inhibition curves were compared by ANOVA with post test comparisons of the logIC50 using Dunnett's multiple comparisons post test or Student's nonpaired, two-tailed t-test (GraphPad InStat software).
Turning to `CN(CCCc1ccsc1)[C@H]1CC[C@H](c2ccc3[nH]c(=O)oc3c2)CC1` [Example 52b, 6-[trans-4-{[3-(3-Thiophen-3-yl)propyl]methylamino}cyclohexyl)-3H-benzoxazol-2-one], the IC50 (in general, the midpoint of a concentration-inhibition curve) amounted to 3 nM. In other words, the single-digit nanomolar range.

As to `CC(C)c1ccc(CCCN(C)[C@H]2CC[C@H](c3ccc4[nH]c(=O)oc4c3)CC2)cc1` [Example 53, 6-(trans-4-{[3-(4-Isopropylphenyl)propyl]methylamino}cyclohexyl)-3H-benzoxazol-2-one], the IC50 was determined as 2 nM.

Consider `CN(CCCc1ccc(Cl)cc1Cl)[C@H]1CC[C@H](c2ccc3[nH]c(=O)oc3c2)CC1` [Example 54, 6-(trans-4-{[3-(2,4-Dichlorophenyl)propyl]methylamino}cyclohexyl)-3H-benzoxazol-2-one], for which the half-maximal inhibitory concentration (IC50) is 34 nM.

`CN(CCCc1ccc(F)c(F)c1F)[C@H]1CC[C@H](c2ccc3[nH]c(=O)oc3c2)CC1` [Example 55, 6-(trans-4-{[3-(2,3,4-Trifluorophenyl)propyl]methylamino}cyclohexyl)-3H-benzoxazol-2-one] registered an IC50 of 5 nM. This IC50 lies about 6.8-fold lower than the previous one.

Take `CC(C)Cc1ccc(CCCN(C)[C@H]2CC[C@H](c3ccc4[nH]c(=O)oc4c3)CC2)cc1` [Example 56, 6-(trans-4-{[3-(4-Isobutylphenyl)propyl]methylamino}cyclohexyl)-3H-benzoxazol-2-one]: the half-inhibitory concentration (IC50) was determined as 71 nM.

Molecule `CN(CCCc1c(F)cc(F)cc1F)[C@H]1CC[C@H](c2ccc3[nH]c(=O)oc3c2)CC1` [Example 57, 6-(trans-4-{[3-(2,4,6-Trifluorophenyl)propyl]methylamino}cyclohexyl)-3H-benzoxazol-2-one] registered an IC50 of 6 nM.

In turn, `CN(CCCc1nccs1)[C@H]1CC[C@H](c2ccc3[nH]c(=O)oc3c2)CC1` [Example 59, 6-{trans-4-[Methyl(3-thiazol-2-ylpropyl)amino]cyclohexyl}-3H-benzoxazol-2-one] showed an IC50 of 316 nM.

In the case of `CN(CCN(C)[C@H]1CC[C@H](c2ccc3[nH]c(=O)oc3c2)CC1)c1ccccc1` [Example 60, 6-(trans-4-{Methyl-[2-(Methylphenylamino)ethyl]amino}cyclohexyl)-3H-benzoxazol-2-one], the IC50 is above 1000 nM.

Regarding `CN(CCCc1ccc(F)cc1)[C@H]1CC[C@H](c2ccc3[nH]c(=O)sc3c2)CC1` [Example 61b, 6-(trans-4-{[3-(4-Fluorophenyl)propyl]methylamino}cyclohexyl)-3H-benzthiazol-2-one], the IC50 was 12 nM.

`O=c1[nH]c2ccc([C@H]3CC[C@H](NCCCc4ccc(F)cc4)CC3)cc2[nH]1` [Example 62, 5-{trans-4-[3-(4-Fluorophenyl)propylamino]cyclohexyl}-1,3-dihydrobenzoimidazol-2-one] displayed an IC50 of 17 nM.

On to `CN(CCCc1ccc(F)cc1)[C@H]1CC[C@H](c2ccc3[nH]c(=O)[nH]c3c2)CC1` [Example 63, 5-(trans-4-{[3-(4-Fluorophenyl)propyl]methylamino}cyclohexyl)-1,3-dihydrobenzoimidazol-2-one], for which the IC50 came out at 2 nM.

In the case of `Cc1cc2[nH]c(=O)oc2cc1[C@H]1CC[C@H](N(C)CCCc2ccc(F)cc2)CC1` [Example 64, 6-(4-{[3-(4-Fluorophenyl)propyl]methyl-amino}cyclohexyl)-5-methyl-3H-benzoxazol-2-one], the IC50 is 45 nM. This IC50 is about 22-fold higher than that of the molecule before.

In turn, `COc1cc2[nH]c(=O)oc2cc1[C@H]1CC[C@H](N(C)CCCc2ccc(F)cc2)CC1` [Example 65, 6-(trans-4-{[3-(4-Fluorophenyl)propyl]methylamino}cyclohexyl)-5-methoxy-3H-benzoxazol-2-one] gave an IC50 of 67 nM.

Tested on in the next data set: not given
Test: not given
Details: not given
Take `O=c1[nH]c2ccc([C@H]3CC[C@H](NCCCc4ccc(F)cc4)CC3)cc2o1` (as salt: HCl) [Example 4a, 6-{trans-4-[3-(4-Fluorophenyl)propylamino]cyclohexyl}-3H-benzoxazol-2-one]: the melting point – broadly, the temperature, or range, at which the solid turns liquid – lay within 293 to 307 °C.

`O=c1[nH]c2ccc([C@H]3CC[C@H](NCCSc4ccccc4)CC3)cc2o1` (as salt: HCl) [Example 5a, 6-[trans-4-(2-Phenylsulfanylethylamino)cyclohexyl]-3H-benzoxazol-2-one]: the melting point lay within 241 to 243 °C.

As for `O=c1[nH]c2ccc([C@H]3CC[C@H](NCCSc4ccc(F)cc4)CC3)cc2o1` (as salt: HCl) [Example 8, 6-{trans-4-[2-(4-Fluorophenylsulfanyl)ethylamino]cyclohexyl}-3H-benzoxazol-2-one], the melting point was 254 to 256 °C.

The molecule `C[C@H](CCc1ccccc1)N[C@H]1CC[C@H](c2ccc3[nH]c(=O)oc3c2)CC1` (as salt: HCl) [Example 9, 6-{trans-4-[(R)-1-Methyl-3-phenylpropylamino]cyclohexyl}-3H-benzoxazol-2-one] yielded a melting point of 291 to 304 °C.

With `Cc1ccc(CCCN[C@H]2CC[C@@H](c3ccc4[nH]c(=O)oc4c3)CC2)cc1` (as salt: HCl) [Example 13a, 6-[cis-4-(3-p-Tolylpropylamino)cyclohexyl]-3H-benzoxazol-2-one], the melting point lay within 263 to 265 °C.

Take `O=c1[nH]c2ccc([C@H]3CC[C@H](NCCCc4ccc(C(F)(F)F)cc4)CC3)cc2o1` (as salt: HCl) [Example 14, 6-{trans-4-[3-(4-Trifluoromethylphenyl)propylamino]cyclohexyl}-3H-benzoxazol-2-one]: the melting point lay within 285 to 295 °C.

Molecule `O=c1[nH]c2ccc([C@H]3CC[C@H](NCC[S+]([O-])c4ccccc4)CC3)cc2o1` (stereo partly drawn) (as salt: HCl) [Example 15, 6-[trans-4-(2-Benzenesulfinylethylamino)cyclohexyl]-3H-benzoxazol-2-one] registered a melting point of 107 to 110 °C.

Consider `O=c1[nH]c2ccc([C@H]3CC[C@H](NCCS(=O)(=O)c4ccccc4)CC3)cc2o1` (as salt: HCl) [Example 16, 6-[trans-4-(2-Benzenesulfonylethylamino)cyclohexyl]-3H-benzoxazol-2-one], for which the melting point fell in the range of 202 to 208 °C.

As for `CN(CCSc1ccc(F)cc1)[C@H]1CC[C@H](c2ccc3[nH]c(=O)oc3c2)CC1` (as salt: HCl) [Example 20, 6-{trans-4-[2-(4-Fluorophenylsulfanylethyl)methylamino]cyclohexyl}-3H-benzoxazol-2-one], the melting point lay in the range of 213 to 217 °C.

`Cc1ccc(CCCN(C)[C@H]2CC[C@H](c3ccc4[nH]c(=O)oc4c3)CC2)cc1` (as salt: HCl) [Example 21, 6-{trans-4-[Methyl-3-(p-Tolylpropyl)amino]cyclohexyl}-3H-benzoxazol-2-one] had a melting point of 213 to 225 °C.

The molecule `CN(CCOc1ccccc1)[C@H]1CC[C@H](c2ccc3[nH]c(=O)oc3c2)CC1` (as salt: HCl) [Example 22, 6-{trans-4-[Methyl(2-phenoxyethyl)amino]cyclohexyl}-3H-benzoxazol-2-one] came in with a melting point of 277 to 285 °C.

The molecule `CN(CCCc1ccc(C(F)(F)F)cc1)[C@H]1CC[C@H](c2ccc3[nH]c(=O)oc3c2)CC1` (as salt: HCl) [Example 23, 6-{trans-4-[Methyl-3-(4-Trifluoromethylphenyl)propylamino]cyclohexyl}-3H-benzoxazol-2-one] displayed a melting point of 227 to 234 °C.

Consider `CN(CCCc1ccc(F)cc1F)[C@H]1CC[C@H](c2ccc3[nH]c(=O)oc3c2)CC1` (as salt: HCl) [Example 24b, 6-(trans-4-{[3-(2,4-Difluorophenyl)propyl]methylamino}cyclohexyl)-3H-benzoxazol-2-one], for which the melting point fell in the range of 269 to 272 °C.

Regarding `CCN(CCCc1ccc(F)cc1)[C@H]1CC[C@H](c2ccc3[nH]c(=O)oc3c2)CC1` (as salt: HCl) [Example 25, 6-(trans-4-{Ethyl-[3-(4-fluorophenyl)propyl]amino}cyclohexyl)-3H-benzoxazol-2-one], the melting point lay in the range of 228 to 231 °C.

In the case of `CCN(CCCc1ccc(C(F)(F)F)cc1)[C@H]1CC[C@H](c2ccc3[nH]c(=O)oc3c2)CC1` (as salt: HCl) [Example 26], the melting point was 248 to 252 °C.
